Laboratory results taken from patent publication US9267949B2, “Alkylamino BODIPY dyes as selective fluorescent probes for proteins and mouse embryonic stem cells” (National University of Singapore, priority 2011, dated 2016).

Columns and labels:
[1] = Spectroscopic properties of the BDM library (absorbance and emission maxima); format: physicochemical
[2] = Quantum yield measurements; format: physicochemical; conditions: referred to Rhodamine B in EtOH, excitation 510 nm, emission integrated 540-800 nm
Procedure: Quantum yields were calculated by measuring the integrated emission area of the fluorescent spectra, and referring them to the area measured for Rhodamine B in EtOH after excitation at 510 nm (ΦRho-B=0.70). Quantum yields for the BDM products were then calculated using equation below, where F represents the area of fluorescent emission, n is reflective index of the solvent, and Abs is absorbance at excitation wavelength selected for standards and samples. Emission was integrated from 540 nm to 800 nm.

Structure (SMILES) | λmax (ABS) [1] | λmax (EM) [1] | φ (quantum yield) [2]
CC1=CC(/C=C/c2cc(Br)ccc2O)=[N+]2C1=C(CCN)c1cccn1[B-]2(F)F [BDM-73] | 561 nm | 575 nm | 0.28
CC1=CC(/C=C/c2ccc(Br)s2)=[N+]2C1=C(CCN)c1cccn1[B-]2(F)F [BDM-100] | 571 nm | 582 nm | 0.43
CC1=CC(/C=C/c2ccc(-c3ccc(Cl)cc3)o2)=[N+]2C1=C(CCN)c1cccn1[B-]2(F)F [BDM-371] | 590 nm | 630 nm | 0.03
C=CCOc1ccccc1/C=C/C1=[N+]2C(=C(CCN)c3cccn3[B-]2(F)F)C(C)=C1 [BDM-202] | 559 nm | 575 nm | 0.52
CC1=CC(/C=C/c2cccc(OC(F)(F)C(F)F)c2)=[N+]2C1=C(CCN)c1cccn1[B-]2(F)F [BDM-345] | 551 nm | 564 nm | 0.22
Cc1cc(/C=C/c2ccc(-c3cccs3)s2)n2c1C(CCN)=C1C=CC=[N+]1[B-]2(F)F [BDM-30] | 596 nm | 634 nm | 0.11
CC1=CC(/C=C/c2ccc(C(C)(C)C)cc2)=[N+]2C1=C(CCN)c1cccn1[B-]2(F)F [BDM-177] | 556 nm | 567 nm | 0.78
CC1=CC(/C=C/c2ccc(-c3ccccc3)c(F)c2)=[N+]2C1=C(CCN)c1cccn1[B-]2(F)F [BDM-425] | 562 nm | 576 nm | 0.12
COc1ccc(/C=C/C2=[N+]3C(=C(CCN)c4cccn4[B-]3(F)F)C(C)=C2)cc1O [BDM-132] | 568 nm | 594 nm | 0.05
CC1=CC(/C=C/c2ccccc2Cl)=[N+]2C1=C(CCN)c1cccn1[B-]2(F)F [BDM-207] | 553 nm | 566 nm | 0.24
COc1ccc(Br)cc1/C=C/c1cc(C)c2n1[B-](F)(F)[N+]1=CC=CC1=C2CCN [BDM-54] | 559 nm | 573 nm | 0.52
Cc1cc(/C=C/c2c3ccccc3cc3ccccc23)n2c1C(CCN)=C1C=CC=[N+]1[B-]2(F)F [BDM-6] | 536 nm | 682 nm | 0.12
CCCCN(CCCC)c1ccc(/C=C/C2=[N+]3C(=C(CCN)c4cccn4[B-]3(F)F)C(C)=C2)cc1 [BDM-17] | 622 nm | 695 nm | 0.03
CC1=CC(/C=C/c2ccc3c(c2)OC(F)(F)O3)=[N+]2C1=C(CCN)c1cccn1[B-]2(F)F [BDM-332] | 552 nm | 562 nm | 0.61
COc1ccc(/C=C/C2=[N+]3C(=C(CCN)c4cccn4[B-]3(F)F)C(C)=C2)cc1Br [BDM-260] | 564 nm | 582 nm | 0.05
Cc1ccc(O)c(/C=C/c2cc(C)c3n2[B-](F)(F)[N+]2=CC=CC2=C3CCN)c1 [BDM-33] | 564 nm | 580 nm | 0.14
Cc1cc(/C=C/c2ccc(-c3ccccc3)cc2)n2c1C(CCN)=C1C=CC=[N+]1[B-]2(F)F [BDM-5] | 561 nm | 575 nm | 0.50
COC(=O)c1cc(OC)cc(OC)c1/C=C/C1=[N+]2C(=C(CCN)c3cccn3[B-]2(F)F)C(C)=C1 [BDM-401] | 565 nm | 590 nm | 0.85
Cc1cc(/C=C/c2ccc(-n3ccnc3)cc2)n2c1C(CCN)=C1C=CC=[N+]1[B-]2(F)F [BDM-8] | 561 nm | 575 nm | 0.34
Cc1cc(/C=C/c2ccc(Cl)cc2)n2c1C(CCN)=C1C=CC=[N+]1[B-]2(F)F [BDM-12] | 556 nm | 567 nm | 0.32

Now from value to compound:

λmax (ABS) [1] | λmax (EM) [1] | φ (quantum yield) [2] | Structure (SMILES)
582 nm | 642 nm | 0.13 | COc1ccc2c(OC)ccc(/C=C/C3=[N+]4C(=C(CCN)c5cccn5[B-]4(F)F)C(C)=C3)c2c1 [BDM-70]
555 nm | 567 nm | 0.38 | COc1cc(/C=C/C2=[N+]3C(=C(CCN)c4cccn4[B-]3(F)F)C(C)=C2)cc(OC)c1 [BDM-209]
559 nm | 576 nm | 0.66 | CC1=CC(/C=C/c2ccc(Oc3ccccc3)cc2)=[N+]2C1=C(CCN)c1cccn1[B-]2(F)F [BDM-101]
556 nm | 570 nm | 0.44 | CCOc1cccc(/C=C/C2=[N+]3C(=C(CCN)c4cccn4[B-]3(F)F)C(C)=C2)c1 [BDM-323]
561 nm | 577 nm | 0.37 | COc1ccc(Oc2ccc(/C=C/C3=[N+]4C(=C(CCN)c5cccn5[B-]4(F)F)C(C)=C3)cc2)cc1 [BDM-178]
562 nm | 579 nm | 0.44 | CC1=CC(/C=C/c2ccc(Oc3ccc(C)cc3)cc2)=[N+]2C1=C(CCN)c1cccn1[B-]2(F)F [BDM-300]
555 nm | 563 nm | 0.27 | CC1=CC(/C=C/c2ccc(Oc3ccc(Cl)c(Cl)c3)cc2)=[N+]2C1=C(CCN)c1cccn1[B-]2(F)F [BDM-299]
559 nm | 568 nm | 0.32 | COc1cccc(Oc2ccc(/C=C/C3=[N+]4C(=C(CCN)c5cccn5[B-]4(F)F)C(C)=C3)cc2)c1 [BDM-298]
558 nm | 572 nm | 0.27 | CC1=CC(/C=C/c2ccc(C)cc2)=[N+]2C1=C(CCN)c1cccn1[B-]2(F)F [BDM-208]
563 nm | 575 nm | 0.28 | CC1=CC(/C=C/c2ccc3ccccc3c2)=[N+]2C1=C(CCN)c1cccn1[B-]2(F)F [BDM-137]
564 nm | 585 nm | 0.57 | CCCOc1ccc(/C=C/C2=[N+]3C(=C(CCN)c4cccn4[B-]3(F)F)C(C)=C2)cc1 [BDM-140]
559 nm | 574 nm | 0.83 | COc1ccc(/C=C/C2=[N+]3C(=C(CCN)c4cccn4[B-]3(F)F)C(C)=C2)c(F)c1 [BDM-359]
556 nm | 570 nm | 0.10 | COc1ccc(/C=C/C2=[N+]3C(=C(CCN)c4cccn4[B-]3(F)F)C(C)=C2)cc1F [BDM-314]
551 nm | 561 nm | 0.63 | CC1=CC(/C=C/c2ccc(OC(F)(F)F)cc2)=[N+]2C1=C(CCN)c1cccn1[B-]2(F)F [BDM-68]
565 nm | 582 nm | 0.26 | CC1=CC(/C=C/c2ccc(OCc3ccccc3)cc2)=[N+]2C1=C(CCN)c1cccn1[B-]2(F)F [BDM-90]
574 nm | 605 nm | 0.20 | COc1ccc(/C=C/C2=[N+]3C(=C(CCN)c4cccn4[B-]3(F)F)C(C)=C2)c(O)c1 [BDM-192]
